Among the test systems are COLO 205; M14; CCRF-CEM; HL-60; SNB-19; OVCAR-3; NCI-H460; EKVX; RPMI-8226; OVCAR-4; TK-10; 786-0; Malme-3M; HCT-15; HT-29; NCI-H226; IGROV-1; CAKI-1.
What all share (test): inhibition of tumour cell growth, NCI panel, 48 h

Results on 13 compounds are retold here after ChEMBL document CHEMBL1201862, “PubChem BioAssay data set” (2004).

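In this assay, cells in 96-well plates receive the compound at five concentrations for 48 hours. Endpoints are linearly interpolated between the surrounding concentrations. Abbreviation: GI50, concentration required for 50% inhibition of growth.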 Active and inactive are the calls of the source. Cut-off read from the data, not from the text of the source: active = GI50 up to about 1.1 µM and inactive = higher. A value given as a limit tells only on which side of the number the result lay.

On to `Cn1c2c(c3ccccc31)C1CCCCCCC1C1C(=O)OC(=O)C21` (stereo unspecified), for which the GI50 in the assay on COLO 205 is 40.6 µM (inactive); in the assay with M14, 88.1 µM (inactive); in the assay on CCRF-CEM, 24.3 µM (inactive); with HL-60, 30.8 µM (inactive); with SNB-19, 44.8 µM (inactive); in the assay with OVCAR-3, 19.5 µM (inactive). Also, the GI50 is 36.8 µM (inactive) with NCI-H460; 45.5 µM (inactive) with EKVX; 23.1 µM (inactive) in the assay with RPMI-8226; 53.8 µM (inactive) in the assay with OVCAR-4; > 100 µM (inactive) in the assay with TK-10; > 100 µM (inactive) with 786-0. The GI50 is 11.9 µM (inactive) in the assay with Malme-3M; 30.2 µM in the assay with HCT-15; 30.1 µM (inactive) in the assay with HT-29; 63 µM (inactive) with NCI-H226; 27.4 µM (inactive) in the assay with IGROV-1.

In the case of `O=C(O)C1=C(C(=O)O)Oc2ccccc2O1`, the GI50 in the assay with COLO 205, with M14, with CCRF-CEM, with HL-60, in the assay on SNB-19 and in the assay with OVCAR-3 was > 100 µM (inactive) each time. The GI50 in the assay on NCI-H460, in the assay on EKVX, in the assay with CAKI-1, in the assay with OVCAR-4, in the assay on TK-10 and in the assay on 786-0 was > 100 µM (inactive) throughout. Moreover, the GI50 in the assay on Malme-3M is > 100 µM (inactive); in the assay on HCT-15 it was more than 100 µM; in the assay on HT-29, > 100 µM (inactive); in the assay on NCI-H226, > 100 µM (inactive); in the assay on IGROV-1, > 100 µM (inactive).

For the compound `CC(C)(Oc1ccc(C(=O)c2ccc(Cl)cc2)cc1Cl)C(=O)Nc1c(Cl)cccc1Cl`, the GI50 in the assay on M14 was > 100 µM (inactive); with CCRF-CEM it was > 100 µM (inactive); in the assay with HL-60, 10.7 µM (inactive); in the assay with SNB-19 it was > 100 µM (inactive); in the assay with OVCAR-3 it was > 100 µM (inactive); with NCI-H460, 5.77 µM (inactive). In addition, the GI50 in the assay on EKVX, in the assay with CAKI-1, in the assay on RPMI-8226, with TK-10, with 786-0 and with Malme-3M was > 100 µM (inactive) throughout. Further, the GI50 was more than 100 µM in the assay with HCT-15, > 100 µM (inactive) with HT-29 and > 100 µM (inactive) in the assay on IGROV-1.

With `Cc1nc(-n2nc(-c3ccccc3)cc2-c2ccccc2)sc1C(=O)/C=C/c1cccc([N+](=O)[O-])c1`, the GI50 in the assay on COLO 205 was 17 µM (inactive); with CCRF-CEM it was 8.32 µM (inactive); in the assay with HL-60, 12.2 µM (inactive); in the assay with SNB-19, 11.4 µM (inactive); with OVCAR-3 it was 3.03 µM (inactive); in the assay on NCI-H460, 25.8 µM (inactive). For the same compound, the GI50 with EKVX was 34.7 µM (inactive); in the assay on CAKI-1 it was 16.7 µM (inactive); with RPMI-8226 it was 4.76 µM (inactive); with TK-10, 36 µM (inactive); in the assay on 786-0 it was 12.7 µM (inactive); in the assay on Malme-3M it was 19.2 µM (inactive). The GI50 in the assay on HCT-15 is 16.8 µM; with HT-29, 12.7 µM (inactive); in the assay with IGROV-1 it was 24.1 µM (inactive).

On to `O=C(/C=C/c1ccco1)N1CCN(Cc2ccccc2)CC1`, for which the GI50 with M14, in the assay on CCRF-CEM, with HL-60, with SNB-19, in the assay with OVCAR-3 and with NCI-H460 was > 100 µM (inactive) in each case. Besides, the GI50 in the assay with EKVX, in the assay on CAKI-1, with RPMI-8226, in the assay with OVCAR-4, in the assay on TK-10 and with 786-0 was > 100 µM (inactive) throughout. Besides, the GI50 in the assay on HCT-15 is more than 100 µM; with HT-29, > 100 µM (inactive); in the assay with IGROV-1, > 100 µM (inactive).

`CN(C(=O)c1cccs1)C(=S)N1CCN(c2ccccn2)CC1`: the GI50 in the assay with COLO 205, in the assay with M14, with CCRF-CEM, with HL-60, with SNB-19 and in the assay with OVCAR-3 was > 100 µM (inactive) each time. In addition, the GI50 in the assay on NCI-H460, in the assay on CAKI-1, in the assay on RPMI-8226, in the assay on OVCAR-4, in the assay on TK-10 and with 786-0 was > 100 µM (inactive) throughout. Besides, the GI50 in the assay with Malme-3M was > 100 µM (inactive); in the assay with HCT-15, more than 100 µM; in the assay on HT-29 it was > 100 µM (inactive); in the assay on NCI-H226, > 100 µM (inactive); with IGROV-1, > 100 µM (inactive).

Consider `O=C1Cc2nc(CO)c(CO)c(CO)c2CO1`, for which the GI50 in the assay with COLO 205, with M14, in the assay with CCRF-CEM, in the assay on HL-60, in the assay on SNB-19 and in the assay on OVCAR-3 was > 100 µM (inactive) in each case. The GI50 with NCI-H460, with EKVX, with CAKI-1, in the assay on RPMI-8226, in the assay on TK-10 and in the assay with 786-0 was > 100 µM (inactive) throughout. The GI50 in the assay on Malme-3M was > 100 µM (inactive); with HCT-15, more than 100 µM; in the assay on HT-29, > 100 µM (inactive); in the assay on IGROV-1 it was > 100 µM (inactive).

With `C=CCC(N(C)C(=O)[C@H](Cc1ccccc1)NC(=O)OCc1ccccc1)P(=O)(Oc1ccccc1)Oc1ccccc1` (stereo partly specified), the GI50 is 8.43 µM (inactive) with COLO 205; > 100 µM (inactive) with M14; 8.51 µM (inactive) in the assay with CCRF-CEM; 12.8 µM (inactive) in the assay with HL-60; > 100 µM (inactive) in the assay with SNB-19; > 100 µM (inactive) with OVCAR-3. Moreover, the GI50 in the assay with NCI-H460 is 6.1 µM (inactive); in the assay on EKVX, > 100 µM (inactive); in the assay on RPMI-8226 it was 6.81 µM (inactive); in the assay with TK-10 it was > 100 µM (inactive); in the assay on 786-0 it was > 100 µM (inactive); with Malme-3M, > 100 µM (inactive). The GI50 in the assay with HT-29, with NCI-H226 and in the assay with IGROV-1 was > 100 µM (inactive) in each case.

Turning to `CC1C[C@@]2(c3ccccc3)C(=O)CCC[C@H]2N1` (stereo partly specified), the GI50 in the assay with M14, in the assay on CCRF-CEM, in the assay with HL-60, in the assay on SNB-19, in the assay with OVCAR-3 and in the assay with NCI-H460 was > 100 µM (inactive) throughout. In addition, the GI50 in the assay with EKVX was > 100 µM (inactive); in the assay on CAKI-1, > 100 µM (inactive); in the assay on OVCAR-4, > 100 µM (inactive); in the assay on TK-10, > 100 µM (inactive); in the assay with 786-0, > 100 µM (inactive); with Malme-3M it was 16.9 µM (inactive). Further, the GI50 in the assay with HT-29, with NCI-H226 and in the assay with IGROV-1 was > 100 µM (inactive) throughout.

Take `CC(=O)c1ccc(N2C(=O)C3c4[nH]c5ccccc5c4C4CCC(C(C)(C)C)CC4C3C2=O)cc1` (stereo unspecified): the GI50 with COLO 205 was 15.2 µM (inactive); in the assay on M14, 23.9 µM (inactive); in the assay with CCRF-CEM, 36.3 µM (inactive); with HL-60, 27.1 µM (inactive); in the assay with SNB-19, 62.2 µM (inactive); in the assay on EKVX, 30.5 µM (inactive). Also, the GI50 was 23.3 µM (inactive) in the assay on RPMI-8226; 30.9 µM (inactive) in the assay with OVCAR-4; 18.6 µM (inactive) with 786-0; 16.7 µM (inactive) in the assay on Malme-3M; 29.3 µM in the assay on HCT-15; 17.3 µM (inactive) in the assay with HT-29. The GI50 in the assay with NCI-H226 was 18.7 µM (inactive); with IGROV-1, 40.6 µM (inactive).

Regarding `CN(C)C(=O)Oc1c(-c2ccccc2)c(=O)n2c3ccccc3n3c(=O)n(C)c(=O)c1c23`, the GI50 with COLO 205, with M14, in the assay on SNB-19, in the assay on OVCAR-3, in the assay with NCI-H460 and in the assay on EKVX was > 100 µM (inactive) in each case. For the same compound, the GI50 in the assay on CAKI-1, in the assay with RPMI-8226, in the assay with OVCAR-4, in the assay on TK-10, in the assay on 786-0 and in the assay on Malme-3M was > 100 µM (inactive) in each case. The figures for the GI50 in the assay on HCT-15, with HT-29 and with IGROV-1 were more than 100 µM, > 100 µM (inactive) and > 100 µM (inactive), respectively.

Regarding `C/C(=N\NC(=O)CC(=O)Nc1ccc(C)cc1)c1cc2ccccc2oc1=O`, the GI50 with COLO 205, in the assay with M14, in the assay with CCRF-CEM, with HL-60, in the assay on SNB-19 and in the assay with OVCAR-3 was > 100 µM (inactive) in each case. The GI50 in the assay with NCI-H460 is > 100 µM (inactive); with EKVX, > 100 µM (inactive); in the assay on RPMI-8226, > 100 µM (inactive); in the assay on TK-10 it was > 100 µM (inactive); with 786-0 it was > 100 µM (inactive); in the assay with Malme-3M, 38.3 µM (inactive). For the same compound, the GI50 was more than 100 µM in the assay with HCT-15, > 100 µM (inactive) in the assay with HT-29, > 100 µM (inactive) with NCI-H226 and > 100 µM (inactive) with IGROV-1.

For `CCOC(=O)C1COc2cc(-c3cc(=O)c4ccccc4o3)ccc2O1` (stereo unspecified), the GI50 with COLO 205 is > 100 µM (inactive); in the assay with M14, > 100 µM (inactive); in the assay with CCRF-CEM it was > 100 µM (inactive); with SNB-19, > 100 µM (inactive); in the assay on OVCAR-3, > 100 µM (inactive); in the assay on NCI-H460 it was 33.8 µM (inactive). For the same compound, the GI50 was 95.1 µM (inactive) in the assay with EKVX; > 100 µM (inactive) with CAKI-1; 42.9 µM (inactive) in the assay with OVCAR-4; > 100 µM (inactive) in the assay on TK-10; > 100 µM (inactive) in the assay on 786-0; > 100 µM (inactive) in the assay on Malme-3M. The GI50 in the assay on HT-29 is 22.8 µM (inactive); in the assay on IGROV-1 it was 66.8 µM (inactive).
